Test results from US20030139443A1, “Use of tachykinin antagonists, including NK-1 receptor antagonists, to modify unwanted behavior in dogs, cats and horses” (priority 2001, published 2003).

Tests used:
Format in all cases: in vivo, dog
[1] = tested on: Adult dogs with spontaneous anxiety to isolation and/or unfamiliar humans; assay: Example 1: anxiety behaviors of dogs during 15-minute separation phase, compound of Formula 1 vs. placebo, double-blind crossover; conditions: for Hyperactivity Mean, Geometric Mean Time / Vocalization Mean, Geometric Mean Time: 0.1 mg/kg SC once daily, Separation Phase, vs. placebo
Procedure: To evaluate the anxiolytic effects of a compound of Formula 1 vs. placebo after seven and twenty-one days of parenteral dosing at 0.1 mg/kg SID, the following procedure was followed.
Adult dogs with spontaneous anxiety to isolation and/or unfamiliar humans were treated for twenty-one consecutive days with the compound of Formula 1 or a placebo control. Dogs were tested after seven and twenty-one days of dosing. “Day 0” was used to identify the initial day of dosing. The study was conducted using a double-blind crossover design. Treatment periods were 21 days in duration, with a 28 day washout period between treatments. Dogs were randomly assigned to treatment groups such that those receiving compound at the first replicate received placebo on the second replicate. The placebo treatments served as the negative control.
All study participants were blinded to treatment groups. The compound of Formula 1 was administered at a dose of 0.1 mg/kg. The volume of vehicle control used for the placebo treatments was equivalent to the calculated volume of test compound that would have been administered had the animal been receiving drug. All test articles were administered by subcutaneous injection once daily.
On the day of testing, each dog was placed in a cage in an isolated room for 15 minutes. A hidden observer timed any anxious behavior. Animals were tested on dosing day 6 and day 20, starting 2 hours after the dose of the day.
Abnormal anxiety behaviors were studied. Observations were made on two different anxiety behaviors during a 15-minute separation phase. These behaviors are vocalization (barking, crying, growling) and hyperactivity (jumping, pacing, circling).

[2] = tested on: dogs, anxiety associated with separation and with novel sight and sound stimuli; assay: Example 2: canine anxiety model, separation phase and stimulation phase, various dosages of compound of Formula 1
Procedure: The present invention also concerns a method for testing compounds for anxiolytic effect in dogs. The model is designed to induce separation anxiety as well as anxiety due to novel visual and auditory stimuli. To determine whether a test compound has an anxiolytic effect in dogs, separation anxiety and anxiety associated with novel sight and sound stimuli are measured both with and without administration of the test compound. In one preferred embodiment, observations are made on five different anxiety behaviors during a 15-minute separation phase and a 15-minute stimulation phase. These anxiety behaviors are vocalization (barking, crying, growling); hyperactivity (jumping, pacing, circling); destruction (chewing, pawing, digging); salivation; and tremor. […] In addition to direct observation, dogs are videotaped during testing for documentation of behaviors. In one preferred embodiment, a dog is removed from a group pen and placed in an isolation cage. A tester, positioned behind a screen out of view, starts a timer for 15 minutes and a video recorder. […] At the end of the separation phase, the timer is re-set to 15 minutes and a child-size doll mounted on a remote controlled car is driven around the pen continuously. After 10 minutes, the doll and car are driven behind the screen and a child's fazer gun with a variety of sounds is continually activated for 5 minutes. At the end of the stimulation phase, the accumulated time for each behavior is recorded and the video recorder stopped. The dog is removed from the isolation cage and returned to the group pen. Preferably, a complete cross-over study design with test compound and placebo is used. Each treatment period is 21 days in length. Study “day 0” is used to designate the initial day of dosing. Anxiety testing is conducted on study days 6 and 20 within each period. Animals are allocated to treatment group, sequence, pen and evaluation order using a randomization plan. Dogs remain within the same sequence during progression of the cross-over phases of the study so that all possible treatment orders are evenly represented. Preferably, “day 0” is staggered such that 3-6 dogs are evaluated per day. Treatment administration is adjusted on testing days such that each animal is tested at the predicted Cmax for the test compound. Anxiety testing is preferably conducted between 11 AM and 4 PM to account for time-of-day variations in behavior. Animals are fed at the conclusion of testing. A three-week washout is observed between periods. Various dosages of the compound of Formula 1 were tested to determine an optimal dose. Anxiety associated with separation and with novel sight and sound stimuli was measured. Observations are made on two different anxiety behaviors during a 15-minute separation phase and a 15-minute stimulation phase. These behaviors are vocalization (barking, crying, growling) and hyperactivity (jumping, pacing, circling). […] In addition to direct observation, dogs are videotaped during testing for documentation of behaviors. The dog is removed from a group pen and placed in an isolation cage in an adjacent room. The tester, positioned behind a screen out of view, starts a timer for 15 minutes and the video recorder. […] At the end of the separation phase, the timer is re-set to 15 minutes and a child-size doll mounted on a remote controlled car is driven around the pen continuously. After 10 minutes, the doll and car are driven behind the screen and a child's fazer gun with a variety of sounds is continually activated for 5 minutes. At the end of the stimulation phase, the accumulated time for each behavior is recorded and the video recorder stopped. The dog is removed from the isolation cage and returned to the group pen.

[3] = tested on: Adult dogs, separation behavior; assay: Example 3: behavior scores in dogs after ten consecutive oral doses of compound of Formula 2 vs. placebo, cross-over; conditions: 5 mg/kg oral BID, 10 doses
Procedure: Adult dogs received ten consecutive oral doses of a compound of Formula 2 at 5 mg/kg BID or placebo in a cross-over design and effects on behavior were determined beginning one-hour post-dose.
Appropriate amounts of the compound of Formula 2 were weighed and placed in capsules. Capsules were back-filled with dextrose.
Capsules were administered by placing them in the back of the throat and allowing the dogs to swallow. On the day of behavior testing, dogs were fasting at dosing.
Dogs were divided equally into two treatment groups. Treatment Group 1 received 10 consecutive oral doses of the compound of Formula 2 BID at 5 mg/kg and Treatment Group 2 received 10 consecutive oral dextrose placebos BID. At the conclusion of the first half of the study, the protocol was repeated and dogs in Treatment Group 1 received 10 consecutive oral dextrose placebos BID and dogs in Treatment Group 2 received 10 consecutive oral doses of the compound of Formula 2 BID at 5 mg/kg.
Dogs began compound dosing at 1830 and continued for 10 consecutive BID doses. The final dose (dose #10) occurred the morning of testing, one hour prior to the start. Dogs were tested in three 15-minute testing phases in which behavior was scored every 5 minutes. Dogs were videotaped during the testing period.

[4] = 0.03 mg/kg, Separation, Day 6, vs. Day −1
[5] = 0.03 mg/kg, Separation, Day 20, vs. Day −1
[6] = 0.03 mg/kg, Stimulation, Day 6, vs. Day −1
[7] = 0.03 mg/kg, Stimulation, Day 20, vs. Day −1
[8] = 0.1 mg/kg, Separation Phase, Day 6, vs. placebo
[9] = 0.1 mg/kg, Separation Phase, Day 20, vs. placebo
[10] = 0.1 mg/kg, Separation, Day 6, vs. Day −1
[11] = 0.1 mg/kg, Separation, Day 20, vs. Day −1
[12] = 0.1 mg/kg, Stimulation Phase, Day 6, vs. placebo
[13] = 0.1 mg/kg, Stimulation Phase, Day 20, vs. placebo
[14] = 0.1 mg/kg, Stimulation, Day 6, vs. Day −1
[15] = 0.1 mg/kg, Stimulation, Day 20, vs. Day −1
[16] = 0.3 mg/kg, Separation, Day 6, vs. Day −1
[17] = 0.3 mg/kg, Separation, Day 20, vs. Day −1
[18] = 0.3 mg/kg, Stimulation, Day 6, vs. Day −1
[19] = 0.3 mg/kg, Stimulation, Day 20, vs. Day −1
[20] = 1 mg/kg, Separation Phase, Day 6, vs. placebo
[21] = 1 mg/kg, Separation Phase, Day 20, vs. placebo
[22] = 1 mg/kg, Stimulation Phase, Day 6, vs. placebo
[23] = 1 mg/kg, Stimulation Phase, Day 20, vs. placebo

Q: With `COc1ccc(C(C)(C)C)cc1CN[C@H]1C2CCN(CC2)[C@H]1C(c1ccccc1)c1ccccc1` [Compound of Formula 1, (2S.3S) (2-Benzhydryl-1-aza-bicyclo[2.2.2]oct-3-yl)-(5-tert-butyl-2-methoxy-benzyl)-amine] as the compound, how does the “effectiveness at treating vocalization and hyperactivity resulting from separation” value ([1]; 0.1 mg/kg SC, compared with placebo) read?
A: more effective than placebo

Q: What about the “Hyperactivity Mean, Geometric Mean Time” value [2, 4] of the same compound?
A: 19.4 s

Q: And the “Vocalization Mean, Geometric Mean Time” value [2, 4]?
A: 10.6 s

Q: And the “Hyperactivity Mean, Geometric Mean Time” value [2, 5]?
A: 20.1 s

Q: What about the “Vocalization Mean, Geometric Mean Time” value [2, 5] of the same compound?
A: 12.1 s

Q: And the “Hyperactivity Mean, Geometric Mean Time” value [2, 6]?
A: 38.6 s

Q: What about the “Vocalization Mean, Geometric Mean Time” value [2, 6] of the same compound?
A: 24.5 s

Q: And the “Hyperactivity Mean, Geometric Mean Time” value [2, 7]?
A: 28.2 s

Q: What about the “Vocalization Mean, Geometric Mean Time” value [2, 7] of the same compound?
A: 35.6 s

Q: What about the “Hyperactivity Mean, Geometric Mean Time” value [2, 8] of the same compound?
A: 24.1 s

Q: What about the “Vocalization Mean, Geometric Mean Time” value [2, 8] of the same compound?
A: 29.0 s

Q: What about the “Hyperactivity Mean, Geometric Mean Time” value [2, 9] of the same compound?
A: 19.1 s

Q: What about the “Vocalization Mean, Geometric Mean Time” value [2, 9] of the same compound?
A: 25.5 s

Q: And the “Hyperactivity Mean, Geometric Mean Time” value [2, 10]?
A: 24.7 s

Q: What about the “Vocalization Mean, Geometric Mean Time” value [2, 10] of the same compound?
A: 15.5 s

Q: And the “Hyperactivity Mean, Geometric Mean Time” value [2, 11]?
A: 14.8 s

Q: What about the “Vocalization Mean, Geometric Mean Time” value [2, 11] of the same compound?
A: 9.1 s

Q: And the “Hyperactivity Mean, Geometric Mean Time” value [2, 12]?
A: 46.7 s

Q: And the “Vocalization Mean, Geometric Mean Time” value [2, 12]?
A: 35.3 s

Q: And the “Hyperactivity Mean, Geometric Mean Time” value [2, 13]?
A: 51.2 s

Q: What about the “Vocalization Mean, Geometric Mean Time” value [2, 13] of the same compound?
A: 26.4 s

Q: And the “Hyperactivity Mean, Geometric Mean Time” value [2, 14]?
A: 48.8 s

Q: And the “Vocalization Mean, Geometric Mean Time” value [2, 14]?
A: 36.8 s

Q: What about the “Hyperactivity Mean, Geometric Mean Time” value [2, 15] of the same compound?
A: 28.4 s

Q: What about the “Vocalization Mean, Geometric Mean Time” value [2, 15] of the same compound?
A: 24.7 s

Q: What about the “Hyperactivity Mean, Geometric Mean Time” value [2, 16] of the same compound?
A: 49.7 s

Q: What about the “Vocalization Mean, Geometric Mean Time” value [2, 16] of the same compound?
A: 20.9 s

Q: What about the “Hyperactivity Mean, Geometric Mean Time” value [2, 17] of the same compound?
A: 39.1 s

Q: What about the “Vocalization Mean, Geometric Mean Time” value [2, 17] of the same compound?
A: 18.2 s

Q: What about the “Hyperactivity Mean, Geometric Mean Time” value [2, 18] of the same compound?
A: 43.1 s

Q: What about the “Vocalization Mean, Geometric Mean Time” value [2, 18] of the same compound?
A: 15.9 s

Q: And the “Hyperactivity Mean, Geometric Mean Time” value [2, 19]?
A: 41.9 s

Q: And the “Vocalization Mean, Geometric Mean Time” value [2, 19]?
A: 19.2 s

Q: What about the “Hyperactivity Mean, Geometric Mean Time” value [2, 20] of the same compound?
A: 23.3 s

Q: And the “Vocalization Mean, Geometric Mean Time” value [2, 20]?
A: 5.8 s

Q: What about the “Hyperactivity Mean, Geometric Mean Time” value [2, 21] of the same compound?
A: 16.8 s

Q: And the “Vocalization Mean, Geometric Mean Time” value [2, 21]?
A: 6.9 s

Q: What about the “Hyperactivity Mean, Geometric Mean Time” value [2, 22] of the same compound?
A: 22.7 s

Q: And the “Vocalization Mean, Geometric Mean Time” value [2, 22]?
A: 6.5 s

Q: What about the “Hyperactivity Mean, Geometric Mean Time” value [2, 23] of the same compound?
A: 36.0 s

Q: What about the “Vocalization Mean, Geometric Mean Time” value [2, 23] of the same compound?
A: 7.4 s

Q: And the “most efficacious dosage in dogs among those dosages tested” value ([2]; SC, dosages tested 0.03, 0.1, 0.3, 1 mg/kg)?
A: 0.1 mg/kg

Q: With `COc1ccc(OC(F)(F)F)cc1CN[C@H]1CCCN[C@H]1c1ccccc1` [Compound of Formula 2] as the compound, how does the “Separation Hyperactivity 0-15 min, behavior score as estimated duration of time” value (“Separation Hyperactivity 0-15 min” for short) ([3]; Dog ID 70954) read?
A: 2 s

Q: And the “Separation Vocalization 0-15 min, behavior score as estimated duration of time” value (“Separation Vocalization 0-15 min” below) ([3]; Dog ID 70954)?
A: 0 s

Q: And the “Separation Hyperactivity 0-15 min” value ([3]; Dog ID 215155)?
A: 2 s

Q: And the “Separation Vocalization 0-15 min” value ([3]; Dog ID 215155)?
A: 12 s

Q: And the “Separation Hyperactivity 0-15 min” value ([3]; Dog ID 219622)?
A: 30 s

Q: What about the “Separation Vocalization 0-15 min” value ([3]; Dog ID 219622) of the same compound?
A: 22 s

Q: What about the “Separation Hyperactivity 0-15 min” value ([3]; Dog ID 227641) of the same compound?
A: 2 s

Q: What about the “Separation Vocalization 0-15 min” value ([3]; Dog ID 227641) of the same compound?
A: 2 s

Q: What about the “Separation Hyperactivity 0-15 min” value ([3]; Dog ID 234923) of the same compound?
A: 2 s

Q: What about the “Separation Vocalization 0-15 min” value ([3]; Dog ID 234923) of the same compound?
A: 0 s

Q: And the “Separation Hyperactivity 0-15 min” value ([3]; Dog ID 240893)?
A: 6 s

Q: What about the “Separation Vocalization 0-15 min” value ([3]; Dog ID 240893) of the same compound?
A: 0 s

Q: What about the “Separation Hyperactivity 0-15 min” value ([3]; Dog ID 2943450) of the same compound?
A: 18 s

Q: And the “Separation Vocalization 0-15 min” value ([3]; Dog ID 2943450)?
A: 30 s

Q: What about the “Separation Hyperactivity 0-15 min” value ([3]; Dog ID HIHMFU) of the same compound?
A: 12 s

Q: What about the “Separation Vocalization 0-15 min” value ([3]; Dog ID HIHMFU) of the same compound?
A: 0 s

Q: What about the “Separation Hyperactivity 0-15 min” value ([3]; Mean of 8 dogs) of the same compound?
A: 9.25 s

Q: What about the “Separation Vocalization 0-15 min” value ([3]; Mean of 8 dogs) of the same compound?
A: 8.25 s

Q: And the “Hyperactivity Mean, Geometric Mean Time” value ([1]; Day 6)?
A: 24.1 s

Q: What about the “Vocalization Mean, Geometric Mean Time” value ([1]; Day 6) of the same compound?
A: 29.0 s

Q: And the “Hyperactivity Mean, Geometric Mean Time” value ([1]; Day 20)?
A: 19.1 s

Q: What about the “Vocalization Mean, Geometric Mean Time” value ([1]; Day 20) of the same compound?
A: 25.5 s
